Experiments:
[1] = biological target: T1, EGFR (A431 cell) (Homo sapiens, UniProt P00533); assay: EGF-EGFR binding inhibition assay (Eu-EGF, A431 cells, DELFIA time-resolved fluorescence); settings: Eu-EGF 5 nmol/L, compounds at 1, 3, 10 and 30 μg/mL, nonlinear least square fitting
T1 construct: host or cells: A431 cells
Method: A431 cells (human squamous cell carcinoma cells, purchased from ATCC) for use in this experiment were subcultured using a medium (hereinafter denoted as a medium) prepared by adding inactivated FBS (JRH), Penicillin-streptmycin (GIBCO), and Amphotelicin B (Sigma) at final concentrations of 10 vol %, 50 U/mL-50 μg/mL, and 1 μg/mL, respectively, to DMEM (Sigma). A431 cells suspended in the medium were inoculated into a 96-well microtiter plate (black, COSTAR) at 10,000 cells/100 μL/well, and then pre-cultured overnight in a CO2 incubator (37° C., 5% CO2). After the media within the wells had been completely removed, the wells were washed once in 50 mmol/L HEPES-HCl (pH 7.8, hereinafter denoted as a Buffer) containing 138 mmol/L NaCl, 5 mmol/L KCl, 1.2 mmol/L MgSO4, 1.2 mmol/L CaCl2, 75 μmol/L EDTA and 0.2 vol % BSA, and then a Buffer was added at 49 μL/well. Subsequently, DMSO was added at 1 μL/well, and then Eu-EGF that had been diluted with a Buffer at various concentrations were added at 50 μL/well. The plate was incubated at room temperature for 1 hour, washed 5 times with an ice-cold buffer (200 μL/well), and then a DELFIA enhancement reagent (PerkinElmer life sciences) was added at 100 μL/well. After further 30 minutes of incubation at room temperature, time-resolved fluorescence was measured using a plate reader (ARVO-sx, PerkinElmer life sciences). Excitation wavelength and emission wavelength used herein were 340 nm and 615 nm, respectively.
A value of specific binding was calculated by subtracting a measured value of non-specific binding from a value measured at each ligand concentration. […]
A representative compounds for site 1 of 2) in Example 6, a representative compounds for site 2 of 2) in Example 6, and a representative compounds for site 3 of 1) in Example 6 were subjected to this assay. […] After 30 minutes of incubation at room temperature, time-resolved fluorescence was measured using a plate reader (ARVO-sx, PerkinElmer life sciences). […] Assay was run in duplicate, and then data were processed using each average measured value. […]

[2] = biological target: T2, EGF receptor of A431 cells (Homo sapiens, UniProt P00533); assay: EGFR antagonist activity using EGFR phosphorylation as an index (western blotting); type: cell-based; settings: EGF 100 ng/mL
T2 construct: endogenous in cells; host or cells: A431 cells
Method: When EGFR is activated by binding of a ligand, intracellular regions are phosphorylated. This phosphorylation is detectable using a phosphorylated receptor-specific antibody. A431 cells were cultured (BNR-110M, ESPEC CORP.) using Dulbecco's Modified Eagle's Medium (Sigma) containing 10% fetal calf serum (JRH Bioscience) under an environment of 5% CO2 at 37° C. for 1 day. The cells were then cultured in a serum-free medium for 1 day. When agonist activity was assayed, a medium containing a sample at a concentration of 10 μg/mL was added, and then the resultant was allowed to stand for 10 minutes. Furthermore, when antagonist activity was assayed, a medium containing a sample at a concentration of 10 μg/mL or 100 μg/mL was added, and then the resultant was allowed to stand for 20 minutes. […] The media were removed, the cells were washed with cooled phosphate buffered saline (PBS, Sigma), and then a heated cell lysis buffer (125 mmol/L Tris (Wako Pure Chemical Industries, Ltd.)-hydrochloric acid (Wako Pure Chemical Industries, Ltd.) buffer (pH 6.8) containing 20% glycerol (Wako Pure Chemical Industries, Ltd.), 2% SDS (Sigma), 5% 2-Mercaptoethanol (Sigma), and 0.025 mg/mL Bromo Phenol Blue (Sigma)) was added, thereby obtaining a cell lysate solution. The obtained cell lysate was applied to 7.5% polyacrylamide gel (e-PAGEL, ATTO Corporation), and then subjected to separation by electrophoresis (AE-6400, ATTO Corporation) under a condition of 30 mA per sheet of gel using Tris/glycine/SDS buffer (Bio-Rad Laboratories, Inc.). The resultant was transferred to a polyvinylidene difluoride (PVDF) membrane (clear blot membrane-P, ATTO Corporation) under conditions of 200 mA for 1 hour using semi-dry blotting system (AE-6675, ATTO Corporation). The PVDF membrane was blocked using PBS containing 5% skim milk (Wako Pure Chemical Industries, Ltd.) at room temperature for 1 hour.

T1 sequence (P00533 25-1210): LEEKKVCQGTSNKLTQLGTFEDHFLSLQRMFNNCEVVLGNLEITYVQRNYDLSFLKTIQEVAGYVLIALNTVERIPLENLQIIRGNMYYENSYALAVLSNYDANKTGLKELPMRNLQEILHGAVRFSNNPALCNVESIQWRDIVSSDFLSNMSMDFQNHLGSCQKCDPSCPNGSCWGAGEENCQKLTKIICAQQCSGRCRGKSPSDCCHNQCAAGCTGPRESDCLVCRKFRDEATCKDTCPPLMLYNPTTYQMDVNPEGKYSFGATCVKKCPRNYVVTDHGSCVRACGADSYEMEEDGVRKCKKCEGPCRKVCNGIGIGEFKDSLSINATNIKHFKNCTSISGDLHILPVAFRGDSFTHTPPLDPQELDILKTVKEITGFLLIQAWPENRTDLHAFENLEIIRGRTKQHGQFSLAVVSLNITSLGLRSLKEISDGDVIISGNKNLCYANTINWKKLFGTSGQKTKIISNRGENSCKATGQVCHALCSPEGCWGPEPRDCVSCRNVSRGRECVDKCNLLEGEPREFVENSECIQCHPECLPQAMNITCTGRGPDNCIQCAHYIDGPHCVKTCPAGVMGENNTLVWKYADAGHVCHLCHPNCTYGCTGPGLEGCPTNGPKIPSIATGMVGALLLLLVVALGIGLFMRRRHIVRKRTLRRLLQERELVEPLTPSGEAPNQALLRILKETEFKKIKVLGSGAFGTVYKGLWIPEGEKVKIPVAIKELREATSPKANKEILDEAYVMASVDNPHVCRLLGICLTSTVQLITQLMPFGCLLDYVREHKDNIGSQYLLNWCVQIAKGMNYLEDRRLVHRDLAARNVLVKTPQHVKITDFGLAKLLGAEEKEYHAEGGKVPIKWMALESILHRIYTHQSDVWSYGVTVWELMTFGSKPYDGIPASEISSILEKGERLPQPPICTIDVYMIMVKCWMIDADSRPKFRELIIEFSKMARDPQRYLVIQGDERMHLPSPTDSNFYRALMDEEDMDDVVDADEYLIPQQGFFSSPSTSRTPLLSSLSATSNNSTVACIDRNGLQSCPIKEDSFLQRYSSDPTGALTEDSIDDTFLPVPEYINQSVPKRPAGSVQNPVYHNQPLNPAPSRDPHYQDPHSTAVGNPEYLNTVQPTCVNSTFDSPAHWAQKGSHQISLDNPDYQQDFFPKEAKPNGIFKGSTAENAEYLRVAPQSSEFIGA
T2 sequence (P00533 25-1210): as above

| Compound | IC50 [1] [µM] | inhibition of activation of the EGF receptor due to EGF (EGFR phosphorylation) ([2]; sample 100 μg/mL) | inhibition of activation of the EGF receptor due to EGF (EGFR phosphorylation) ([2]; sample 10 μg/mL) |
| --- | --- | --- | --- |
| CCc1cc2c(cc1C(=O)CSc1ncccc1C(=O)O)C(C)(C)CCC2(C)C [2-[2-(3-ethyl-5,5,8,8-tetramethyl-5,6,7,8-tetrahydro-naphthalene-2-yl)-2-oxo-ethylsulfanyl]-nicotinic acid] | 57.8 | inhibited activation of the EGF receptor |  |
| CCCCCCSc1nc2c(c(=O)[nH]c(=O)n2C)n1CCC [8-hexylsulfanyl-3-methyl-7-propyl-3,7-dihydro-purine-2,6-dione] | 40.1 |  | inhibited activation of the EGF receptor |
| CN1CCN(CCCN2c3ccccc3Sc3ccc(C(F)(F)F)cc32)CC1.Cl.Cl [10-[3-(4-methyl-piperazine-1-yl)-propyl]-2-trifluoromethyl-10H-phenothiazine dihydrochloride] | 16.7 |  | inhibited activation of the EGF receptor |
